The values below come from US20070172844A1, “Individualized cancer treatments” (University of South Florida, priority 2005, published 2007).

In assay [1] the test system is adriamycin treated patients. Particulars: Evans et al data set, n=122; cited from earlier work.
Assay [2] has as its system ovarian cancer cell lines. The experiment in a line: Cell proliferation assays (percent reduction in growth at 96 hrs), 12 ovarian cancer cell lines, Examples 2 and 3. Format: cell-based, human. The procedure: Cell Culture—All liquid media as well as the Thiazolyl Blue Tetrazolium Bromide were purchased from Sigma Aldrich (St. Louis, Mo.). The Src inhibitor SU6656 and the Topotecan hydrochloride were purchased from Calbiochem (San Diego, Calif.). The ovarian cancer cell lines, OV90, OVCA5, TOV21G, and TOV12D were grown as recommended by the supplier (ATCC, Rockville, Md.). FUOV1, a human ovarian carcinoma, was grown according to the supplier (DSMZ; Braunschweig, Germany). Seven additional cell lines (C13, OV2008, A2780CP, A2780S, IGROV1, T8, IMCC3) were provided by Dr. Patricia Kruk, College of Medicine (University of South Florida, Fla.). All of those seven cell lines were grown in RPMI 1640, supplemented with 10% Fetal Bovine Serum, 1% sodium pyruvate, and 1% non essential amino acids. All tissue culture reagents were obtained from Sigma (UK).
Cell proliferation assays—Growth curves for cells were produces out by plating at 500-10,000 cells per well of a 96-well plate. The growth of cells at 12 hr time points (from t=12 hrs) was determined using the CellTiter 96 Aqueous One 23 Solution Cell Proliferation Assay Kit by Promega, which is a calorimetric method for determining the number of growing cells. […] Cumulatively, these experiments determined the concentration of cells to use for each cell line, as well as the dosing range of the inhibitors. […] Sensitivity to topotecan and a Src inhibitor (SU6656), both single alone and combined was determined by quantifying the percent reduction in growth (versus DMSO controls) at 96 hrs. […]
In the analysis of the various oncogenic pathways, analysis of expression data was done as previously described in Bild A, et al., Nature 439:353-357, 2006 and West M, et al., Proc. Natl. Acad. Sci. USA 2001;98(20):11462-7). […] Each oncogenic signature summarizes its constituent genes as a single expression profile, and is derived as the first principal component of that set of genes (the factor corresponding to the largest singular value) as determined by a singular value decomposition. […]

Assay [3] deals with ovarian cancer cell lines. In words: Cell proliferation assays (MTS, percentage reduction in growth at 120 hr), Example 1. Format: cell-based, human. Particulars: inhibition of proliferation vs probability of pathway activation. The procedure:
Cell lines and RNA extraction-The ovarian cancer cell lines, OV90, TO[…], and TO[…] were grown as recommended by the supplier (ATCC, Rockville, Md.). FUOV1, a human ovarian carcinoma, was grown according to the supplier (DSMZ, Braunschweig, Germany). Eight additional cell lines (C13, OV2008, A2780CP, A2780S, IGROV1, T8, OVCAR5 and IMCC3) were provided by Dr. Patricia Kruk, Department of Pathology, College of Medicine (University of South Florida, Tampa, Fla.). […] All tissue culture reagents were obtained from Sigma Aldrich (St. Louis, Mo.). Total RNA was extracted from each cell line and assayed on the Human 133 plus 2.0 arrays. Cell proliferation assays-Assays measuring cell proliferation and the effects of targeted agents have been described previously^36. Briefly, growth curves for the ovarian cancer cell lines were carried out by plating 300-4000 cells per well of a 96-well plate. The growth of cells at 12 hr time points (from t=12 hrs) was determined using the CellTiter 96 Aqueous One Solution Cell Proliferation Assay Kit by Promega, which is a colorimetric method for determining the number of growing cells. […] The degree of proliferation inhibition was plotted as a function of probability of Src pathway activation or E2F3 pathway activation.

The test system of assay [4] is advanced ovarian cancer patients. The experiment in a line: Clinical response to salvage chemotherapy (topotecan, paclitaxel, docetaxel). Format: in vivo, human. Particulars: for Actual Overall response: Ovarian, single agent salvage therapy. From the text: Classification of topotecan response—Response to therapy was retrospectively evaluated from the medical record using standard criteria for patients with measurable disease, based upon WHO guidelines (Miller A B, et al., Cancer 1981;47:207-14). CA-125 was used to classify responses only in the absence of a measurable lesion; CA-125 response criteria were based on established guidelines (Miller A B, et al. Cancer 1981;47:207-14; Rustin G J, et al., Ann. Onco. 110:21-27, 1999). […] A complete response (CR) was defined as a complete disappearance of all measurable and assessable disease or, in the absence of measurable lesions, a normalization of the CA-125 level following topotecan therapy. A partial response (PR) was considered a 50% or greater reduction in the product obtained from measurement of each bi-dimensional lesion for at least 4 weeks or a drop in the CA-125 by at least 50% for at least 4 weeks. Progressive disease (PD) was defined as a 50% or greater increase in the product from any lesion documented within 8 weeks of initiation of therapy, the appearance of any new lesion within 8 weeks of initiation of therapy, or any increase in the CA-125 from baseline at initiation of therapy. Stable disease (SD) was defined as disease not meeting any of the above criteria.
Tissues—We measured expression of 22,283 genes in 12 ovarian cancer cell lines and 48 advanced (FIGO stage III/IV) serous epithelial ovarian carcinomas using Affymetrix U133A GeneChips. All ovarian cancers were obtained at initial cytoreductive surgery from patients treated at H. Lee Moffitt Cancer Center & Research Institute or Duke University Medical Center. All patients received topotecan as salvage chemotherapy after initial platinum based therapy. All tissues were collected under the auspices of a respective institutional IRB approved protocol with written informed consent.
Classification of topotecan response in tumors—Response to therapy was retrospectively evaluated from the medical record using standard criteria for patients with measurable disease, based upon WHO guidelines ((Miller A B, et al., Cancer 1981;47:207-14). CA-125 was used to classify responses only in the absence of a measurable lesion; CA-125 response criteria were based on established guidelines (Miller A B, et al. Cancer 1981;47:207-14; Rustin G J, et al., Ann. Onco. 110:21-27, 1999). A complete responder was defined as a complete disappearance of all measurable and assessable disease or, in the absence of measurable lesions, a normalization of the CA-125 level following topotecan therapy. Non-responders/patients with progressive disease (PD) were defined as a 50% o or greater increase in the primary lesion(s) documented within 8 weeks of initiation of therapy or the appearance of any new lesion within 8 weeks of initiation of therapy.
Full details of the methods used for RNA extraction and development of gene expression signatures representing deregulation of oncogenic pathways in the tumor samples are recently described.^36 Response to therapy was evaluated using standard criteria for patients with measurable disease, based upon WHO guidelines.^28

The subject of assay [5] is breast cancer patients. Particulars: Breast Tumor Data; published neoadjuvant data sets (MDACC TFAC n=51, complete pathologic response; single agent docetaxel n=24); cited from earlier work.
Assay [6] deals with ovarian cancer cell lines. In words: Cell proliferation assay (MTT, 96 hrs), topotecan and SU6656 in 13 ovarian cell lines. Format: cell-based, human. To be noted: 13 ovarian cancer cell lines. The procedure:
Cell proliferation assays. Growth curves for cells were produced by plating 500-10,000 cells per well in 96-well plates. The growth of cells at 12 hr time points (from t=12 hrs) was determined using the CellTiter 96 Aqueous One 23 Solution Cell Proliferation Assay Kit by Promega, which is a colorimetric method for determining the number of growing cells.^36 The growth curves plot the growth rate of cells vs. each concentration of drug tested against individual cell lines. Cumulatively, these experiments determined the concentration of cells to use for each cell line, as well as the dosing range of the inhibitors. The final dose-response curves in our experiments plot the percent of cell population responding to the chemotherapy vs. the concentration of the drug for each cell line. Sensitivity to docetaxel and a phosphatidylinositol 3-kinase (PI3 kinase) inhibitor (LY-294002)^36 in 17 lung cell lines, and topotecan and a Src inhibitor (SU6656) in 13 ovarian cell lines was determined by quantifying the percent reduction in growth (versus DMSO controls) at 96 hrs using a standard MTT colorimetric assay.^36 Concentrations used ranged from 1-10 nM for docetaxel, 300 nM-10 μM (SU6656), and 300 nM-[…] for LY-294002. All experiments were repeated at least three times.

`COc1cccc2c1C(=O)c1c(O)c3c(c(O)c1C2=O)C[C@@](O)(C(=O)CO)C[C@@H]3O[C@H]1C[C@H](N)[C@H](O)[C@H](C)O1` [Adriamycin, adriamycin]: the “Actual Overall response” value in assay [1] is on record as 24/122 (19.6%).
On to `CC[C@H](CO)Nc1nc(NCc2ccccc2)c2ncn(C(C)C)c2n1` [CYC202/R-Roscovitine], for which the “relationship between predicted adriamycin resistance and sensitivity to cdk inhibitor” value in assay [2] (ovarian cancer cell lines) is “coincides with sensitivity to R-Roscovitine”. Further, the “relationship between predicted pathway deregulation (Src or E2F3) and drug sensitivity” value in assay [3] was “clear and statistically significant relationship”.
As for `CC(=O)O[C@@]12CO[C@@H]1C[C@H](O)[C@@]1(C)C(=O)[C@H](O)C3=C(C)[C@@H](OC(=O)[C@H](O)[C@@H](NC(=O)OC(C)(C)C)c4ccccc4)C[C@@](O)([C@@H](OC(=O)c4ccccc4)[C@H]21)C3(C)C` [Docetaxel, docetaxel], the “Actual Overall response” value in assay [4] is 7/14 (50%); in assay [5], 13/24 (54.1%).
Consider `CC(=O)O[C@H]1C(=O)[C@@]2(C)[C@H]([C@H](OC(=O)c3ccccc3)[C@]3(O)C[C@H](OC(=O)[C@H](O)[C@@H](NC(=O)c4ccccc4)c4ccccc4)C(C)=C1C3(C)C)[C@]1(OC(C)=O)CO[C@@H]1C[C@@H]2O` [Paclitaxel, paclitaxel], for which the “Actual Overall response” value in assay [4] is given as 20/35 (57.1%).
For `CN(C)S(=O)(=O)c1ccc2c(c1)/C(=C/c1cc3c([nH]1)CCCC3)C(=O)N2` [SU6656], the “relationship between predicted src-pathway deregulation and response to src-inhibitor alone” value in assay [2] (12 ovarian cancer cell lines) is given as “clear relationship”. The “effect of Src inhibitor on sensitivity to topotecan” value in assay [2] (growth inhibition, 12 ovarian cancer cell lines) was “increases ovarian cancer cell line sensitivity to topotecan”. Moreover, in assay [6], the “relationship between probability of topotecan resistance and sensitivity to Src pathway inhibitor” value is listed as “significant linear relationship”. The “relationship between predicted pathway deregulation (Src or E2F3) and drug sensitivity” value in assay [3] is “clear and statistically significant relationship”.
For `CC[C@@]1(O)C(=O)OCc2c1cc1n(c2=O)Cc2cc3c(CN(C)C)c(O)ccc3nc2-1` [Topotecan, topotecan], the “Actual Overall response” value in assay [4] is 20/48 (41.6%). The “patients classified as topotecan non-responders” value in assay [4] (of 48 patients, non-responder = PD) is reported as 18. Further, in assay [4] (of 48 patients, responder = CR, PR or SD), the “patients classified as topotecan responders” value was determined as 30.
Take `N.N.[Cl][Pt][Cl]` [cisplatin]: the “relationship between predicted pathway deregulation (Src or E2F3) and drug sensitivity” value in assay [3] is “no evident relationship”.
